Data on 1 compound can be found in publication PMC6934184, “Selective DNA-PKcs inhibition extends the therapeutic index of localized radiotherapy and chemotherapy” (The Journal of Clinical Investigation, 2019).

The target in this experiment is T1, LRRK2 R1441C (Homo sapiens, UniProt Q5S007, R1441C).
T1 construct: purchased Thermo Fisher Scientific (Life Technologies) SelectScreen
The experiment can be described thus: SelectScreen Adapta. Type of experiment: biochemical. On the procedure: The in vitro kinase selectivity of NU5455 was determined using the SelectScreen Broad Assay Panel (Thermo Fisher Scientific) involving activity and binding assays (Supplemental Table 1). […] Class IA PI3Ks were measured using the p85α subunit.
Kinase [ATP] % Assay Kinase [ATP] % Assay Kinase [ATP] % Assay Kinase [ATP] % Assay […]
SGK (SGK1) Km app 8.5 Z MAP4K2 (GCK) Km app 2.7 Z TLK2 n/a -0.3 L STK38 (NDR) n/a -5.9 L
MERTK (cMER) Km app 8.3 Z CDK2/cyclin A Km app 2.7 Z TGFBR1 (ALK5) n/a -0.4 L MATK (HYL) Km app -6.3 Z
FYN Km app 8.3 Z EPHA1 Km app 2.7 Z CLK3 Km app -0.5 Z ABL1 E255K Km app -6.6 Z
TEC n/a 8.1 L CDK2/cyclin E1 n/a 2.7 L MAP3K14 (NIK) n/a -0.5 L STK17A (DRAK1) n/a -6.6 L
KIT V654A n/a 8.1 L TESK2 n/a 2.7 L AKT3 (PKB gamma) Km app -0.5 Z JAK2 JH1 JH2 Km app -6.7 Z
ROS1 Km app 8.0 Z SPHK1 Km app 2.7 A MAP3K9 (MLK1) Km app -0.5 Z PRKACB (PRKAC beta) n/a -6.8 L
FGFR3 K650E Km app 7.9 Z AMPK A2/B1/G1 Km app 2.6 Z IKBKB (IKK beta) Km app -0.6 Z PDGFRA (PDGFR alpha) Km app -6.8 Z
RAF1 (cRAF) Y340D Y341D 100 7.9 Z DYRK3 Km app 2.6 Z CAMK2A (CaMKII alpha) Km app -0.6 Z NEK9 Km app -7.2 Z
PI4KA (PI4K alpha) 10 7.8 A CSNK1D (CK1 delta) Km app 2.6 Z PRKCB1 (PKC beta I) Km app -0.7 Z PDK1 Km app -7.3 Z
HIPK2 Km app 7.8 Z ACVR2A n/a 2.5 L TTK n/a -0.7 L RPS6KB1 (p70S6K) Km app -7.8 Z
CSK Km app 7.6 Z DDR2 T654M n/a 2.5 L ZAK n/a -0.7 L STK38L (NDR2) n/a -8.4 L
PRKCG (PKC gamma) Km app 7.6 Z JAK2 Km app 2.5 Z IKBKE (IKK epsilon) Km app -0.7 Z ABL1 G250E Km app -8.5 Z
SRMS (Srm) Km app 7.5 Z HIPK3 (YAK1) Km app 2.5 Z CAMK2G (CaMKII gamma) n/a -0.8 L PRKD1 (PKC mu) Km app -8.5 Z
YES1 Km app 7.4 Z AMPK (A1/B1/G2) n/a 2.4 L TLK1 n/a -0.8 L CDK5/p35 Km app -8.6 Z
RPS6KA5 (MSK1) Km app 7.4 Z MYO3B (MYO3 beta) n/a 2.3 L MAPK12 (p38 gamma) Km app -0.8 Z PDGFRA T674I Km app -8.9 Z
TNIK n/a 7.3 L PASK Km app 2.3 Z PRKCI (PKC iota) Km app -0.8 Z BLK Km app -8.9 Z
FER Km app 7.1 Z ACVRL1 (ALK1) n/a 2.3 L PKN2 (PRK2) n/a -1.0 L PRKD2 (PKD2) Km app -9.1 Z
CDK16 (PCTK1)/cyclin Y n/a 7.0 L EGFR (ErbB1) L861Q Km app 2.2 Z PIM1 Km app -1.0 Z CSNK1G2 (CK1 gamma 2) Km app -9.3 Z
MST4 Km app 6.9 Z RPS6KA3 (RSK2) Km app 2.1 Z CDK5/p25 Km app -1.1 Z ROCK1 Km app -9.5 Z
FLT1 (VEGFR1) Km app 6.5 Z STK23 (MSSK1) Km app 2.0 Z SRPK1 Km app -1.1 Z PRKCB2 (PKC beta II) Km app -9.6 Z
DYRK1A Km app 6.4 Z ALK R1275Q n/a 2.0 L BRSK1 (SAD1) Km app -1.1 Z CSNK1G1 (CK1 gamma 1) Km app -9.9 Z
PRKCD (PKC delta) Km app 6.2 Z TBK1 Km app 2.0 Z MAP3K3 (MEKK3) n/a -1.1 L ABL2 (Arg) Km app -10.3 Z
EGFR (ErbB1) Km app 6.0 Z ACVR1B (ALK4) Km app 2.0 Z AMPK A1/B1/G1 Km app -1.2 Z STK3 (MST2) Km app -10.3 Z
CDC7/DBF4 n/a 6.0 L CDK3/cyclin E1 n/a 1.9 L WNK3 n/a -1.2 L CAMK4 (CaMKIV) Km app -10.4 Z
JAK3 Km app 6.0 Z KDR (VEGFR2) Km app 1.8 Z LATS1 n/a -1.3 L MKNK1 (MNK1) Km app -10.7 Z
MAPK13 (p38 delta) Km app 5.8 Z ULK1 n/a 1.8 L DMPK n/a -1.5 L FLT3 ITD n/a -11.6 L
FRAP1 (mTOR) Km app 5.7 Z AURKB (Aurora B) Km app 1.7 Z CDK2/cyclin A1 n/a -1.6 L CHEK2 (CHK2) Km app -11.7 Z
KIT Y823D n/a 5.6 L LRRK2 Km app 1.7 A LIMK1 n/a -1.7 L LTK (TYK1) Km app -13.1 Z
ITK Km app 5.5 Z MAP2K3 (MEK3) n/a 1.6 L DYRK1B Km app -1.8 Z JAK2 JH1 JH2 V617F Km app -13.8 Z
KIT Km app 5.3 Z DAPK1 Km app 1.6 A DDR1 n/a -1.8 L EPHA8 Km app -13.8 Z
CDK7/cyclin H/MNAT1 Km app 5.3 A EPHA6 n/a 1.6 L BTK Km app -2.0 Z EGFR (ErbB1) T790M L858R Km app -14.1 Z
RET Km app 5.2 Z MAP4K1 (HPK1) n/a 1.6 L ADRBK1 (GRK2) Km app -2.0 Z MET M1250T Km app -14.5 Z […]

T1 sequence (Q5S007 whole entry R1441C): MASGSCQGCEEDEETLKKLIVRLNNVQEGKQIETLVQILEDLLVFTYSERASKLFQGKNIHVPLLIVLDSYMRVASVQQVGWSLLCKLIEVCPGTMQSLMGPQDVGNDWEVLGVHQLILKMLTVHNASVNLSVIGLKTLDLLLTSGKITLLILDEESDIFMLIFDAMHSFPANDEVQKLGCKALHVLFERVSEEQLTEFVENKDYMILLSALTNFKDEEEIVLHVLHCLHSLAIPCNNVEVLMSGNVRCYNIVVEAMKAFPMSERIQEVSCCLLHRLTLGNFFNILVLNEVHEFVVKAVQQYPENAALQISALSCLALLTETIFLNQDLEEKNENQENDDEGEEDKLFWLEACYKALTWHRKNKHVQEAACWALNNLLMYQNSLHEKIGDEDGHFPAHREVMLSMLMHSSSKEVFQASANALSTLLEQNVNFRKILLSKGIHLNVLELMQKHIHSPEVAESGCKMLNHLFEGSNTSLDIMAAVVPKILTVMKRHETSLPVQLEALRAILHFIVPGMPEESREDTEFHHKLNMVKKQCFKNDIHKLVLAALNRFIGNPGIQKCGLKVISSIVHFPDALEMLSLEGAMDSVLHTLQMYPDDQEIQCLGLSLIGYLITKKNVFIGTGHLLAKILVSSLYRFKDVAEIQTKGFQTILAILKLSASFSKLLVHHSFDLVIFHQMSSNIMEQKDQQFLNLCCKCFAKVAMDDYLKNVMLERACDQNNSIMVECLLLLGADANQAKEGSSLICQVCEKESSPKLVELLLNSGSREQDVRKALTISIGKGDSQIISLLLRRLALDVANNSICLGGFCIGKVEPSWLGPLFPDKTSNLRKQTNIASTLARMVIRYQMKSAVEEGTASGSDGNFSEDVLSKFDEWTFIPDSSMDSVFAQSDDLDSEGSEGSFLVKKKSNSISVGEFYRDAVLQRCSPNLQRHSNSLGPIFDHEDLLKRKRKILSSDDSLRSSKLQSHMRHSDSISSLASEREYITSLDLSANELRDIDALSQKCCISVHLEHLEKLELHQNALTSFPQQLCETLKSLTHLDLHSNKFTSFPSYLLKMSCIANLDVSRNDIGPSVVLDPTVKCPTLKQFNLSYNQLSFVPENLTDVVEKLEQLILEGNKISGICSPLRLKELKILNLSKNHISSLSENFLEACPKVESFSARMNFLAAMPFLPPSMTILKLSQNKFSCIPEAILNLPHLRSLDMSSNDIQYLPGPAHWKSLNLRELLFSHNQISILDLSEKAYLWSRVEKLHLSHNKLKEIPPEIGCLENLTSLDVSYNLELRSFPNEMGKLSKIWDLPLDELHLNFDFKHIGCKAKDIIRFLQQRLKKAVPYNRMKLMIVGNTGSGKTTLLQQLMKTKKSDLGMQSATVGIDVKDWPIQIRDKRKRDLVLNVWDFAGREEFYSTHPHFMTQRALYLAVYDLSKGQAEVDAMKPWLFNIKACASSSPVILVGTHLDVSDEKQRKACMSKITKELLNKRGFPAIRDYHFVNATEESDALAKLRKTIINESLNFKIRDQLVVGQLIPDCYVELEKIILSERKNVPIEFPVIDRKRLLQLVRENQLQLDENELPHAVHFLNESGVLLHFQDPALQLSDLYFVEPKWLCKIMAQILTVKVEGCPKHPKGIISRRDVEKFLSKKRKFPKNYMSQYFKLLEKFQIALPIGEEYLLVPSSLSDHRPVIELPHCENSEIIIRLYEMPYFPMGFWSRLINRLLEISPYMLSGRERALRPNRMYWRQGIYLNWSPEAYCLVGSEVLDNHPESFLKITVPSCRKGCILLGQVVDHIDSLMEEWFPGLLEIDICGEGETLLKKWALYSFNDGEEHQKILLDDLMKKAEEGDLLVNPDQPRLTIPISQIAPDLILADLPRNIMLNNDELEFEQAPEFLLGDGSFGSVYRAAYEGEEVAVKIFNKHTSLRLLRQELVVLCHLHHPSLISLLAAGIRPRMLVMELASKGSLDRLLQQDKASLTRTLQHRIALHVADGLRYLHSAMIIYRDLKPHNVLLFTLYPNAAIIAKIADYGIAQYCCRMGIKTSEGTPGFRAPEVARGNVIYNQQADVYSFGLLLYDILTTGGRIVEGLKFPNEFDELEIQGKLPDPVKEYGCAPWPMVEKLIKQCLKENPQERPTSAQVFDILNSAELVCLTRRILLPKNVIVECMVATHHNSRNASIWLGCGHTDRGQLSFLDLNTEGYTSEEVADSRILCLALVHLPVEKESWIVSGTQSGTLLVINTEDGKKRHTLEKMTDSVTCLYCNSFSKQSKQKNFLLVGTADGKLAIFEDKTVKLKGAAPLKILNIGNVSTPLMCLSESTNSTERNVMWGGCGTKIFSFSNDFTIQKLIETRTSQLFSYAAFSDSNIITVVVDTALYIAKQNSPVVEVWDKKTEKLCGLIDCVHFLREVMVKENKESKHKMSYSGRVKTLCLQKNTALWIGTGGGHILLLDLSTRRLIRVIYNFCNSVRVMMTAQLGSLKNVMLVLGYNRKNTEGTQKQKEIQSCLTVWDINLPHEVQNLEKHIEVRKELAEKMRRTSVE

Regarding `CN(C(=O)CN1CCOCC1)c1ccc2sc3c(-c4cccc5c(=O)cc(N6CC7CCC(C6)O7)oc45)cccc3c2c1` [NU5455], at 1 µM the inhibition was 1.8%.

Usually inhibition stands for how much of the control response was suppressed. Lower therefore signals little suppression.
